Assay results taken from PubChem BioAssay (NCI).
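Cultured in 96-well plates, cells were exposed to test compound for 48 hours across five concentrations. TGI marks complete inhibition of growth.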

Experiments:
Experiment in all cases: NCI tumour cell line growth inhibition, 48 h
HL-60(TB) leukemia = test system: HL-60(TB) leukemia
A549 NSCLC = test system: A549 NSCLC
HOP-62 NSCLC = test system: HOP-62 NSCLC
MALME-3M melanoma = test system: MALME-3M melanoma
SNB-75 CNS = test system: SNB-75 CNS
NCI-H23 lung = test system: NCI-H23 lung
SK-MEL-28 melanoma = test system: SK-MEL-28 melanoma
SR leukemia = test system: SR leukemia
HCC-2998 colon = test system: HCC-2998 colon
OVCAR-4 ovarian = test system: OVCAR-4 ovarian
SN12C renal = test system: SN12C renal
NCI-H460 lung = test system: NCI-H460 lung
NCI-H522 lung = test system: NCI-H522 lung
SF-268 CNS = test system: SF-268 CNS
HCT-116 colon = test system: HCT-116 colon
RXF 393 renal = test system: RXF 393 renal
SNB-19 CNS = test system: SNB-19 CNS
KM12 colon = test system: KM12 colon
ACHN renal = test system: ACHN renal
OVCAR-3 ovarian = test system: OVCAR-3 ovarian
SK-OV-3 ovarian = test system: SK-OV-3 ovarian
M14 melanoma = test system: M14 melanoma
UACC-62 melanoma = test system: UACC-62 melanoma
DMS 273 small cell lung = test system: DMS 273 small cell lung
COLO 205 colon = test system: COLO 205 colon
SNB-78 CNS = test system: SNB-78 CNS
UACC-257 melanoma = test system: UACC-257 melanoma
HCT-15 colon = test system: HCT-15 colon
K-562 leukemia = test system: K-562 leukemia
HOP-92 NSCLC = test system: HOP-92 NSCLC
CAKI-1 renal = test system: CAKI-1 renal
TK-10 renal = test system: TK-10 renal
SW-620 colon = test system: SW-620 colon
LXFL 529 NSCLC = test system: LXFL 529 NSCLC
U251 CNS = test system: U251 CNS
SF-295 CNS = test system: SF-295 CNS
CCRF-CEM leukemia = test system: CCRF-CEM leukemia
M19-MEL melanoma = test system: M19-MEL melanoma
786-0 renal = test system: 786-0 renal
OVCAR-8 ovarian = test system: OVCAR-8 ovarian
EKVX NSCLC = test system: EKVX NSCLC
HOP-18 NSCLC = test system: HOP-18 NSCLC
OVCAR-5 ovarian = test system: OVCAR-5 ovarian
IGROV1 ovarian = test system: IGROV1 ovarian
SF-539 CNS = test system: SF-539 CNS
LOX IMVI melanoma = test system: LOX IMVI melanoma
HT29 colon = test system: HT29 colon
KM20L2 colon = test system: KM20L2 colon
SK-MEL-5 melanoma = test system: SK-MEL-5 melanoma
UO-31 renal = test system: UO-31 renal
A498 renal = test system: A498 renal
DLD-1 colon = test system: DLD-1 colon
SK-MEL-2 melanoma = test system: SK-MEL-2 melanoma
NCI-H226 lung = test system: NCI-H226 lung
DMS 114 small cell lung = test system: DMS 114 small cell lung
MOLT-4 leukemia = test system: MOLT-4 leukemia
RPMI-8226 leukemia = test system: RPMI-8226 leukemia

In the case of `Nc1nc[n+](Cc2ccccc2)c2ncn(Cc3ccccc3)c12`, the TGI (HL-60(TB) leukemia) is reported as > 100 µM, the TGI (A549 NSCLC) is reported as > 100 µM and the TGI (HOP-62 NSCLC) is reported as > 100 µM. For the same compound, the TGI (MALME-3M melanoma) was > 100 µM, the TGI (SNB-75 CNS) was > 100 µM and the TGI (NCI-H23 lung) was > 100 µM. The TGI (SK-MEL-28 melanoma) was > 100 µM, the TGI (SR leukemia) was > 100 µM and the TGI (HCC-2998 colon) was 60.4 µM. For the same compound, the TGI (OVCAR-4 ovarian) was > 100 µM, the TGI (SN12C renal) was > 100 µM and the TGI (NCI-H460 lung) was > 100 µM. The TGI (NCI-H522 lung) was > 100 µM, the TGI (SF-268 CNS) was > 100 µM and the TGI (HCT-116 colon) was > 100 µM. The TGI (RXF 393 renal) was 71 µM, the TGI (SNB-19 CNS) was > 100 µM and the TGI (KM12 colon) was > 100 µM. The TGI (ACHN renal) was > 100 µM, the TGI (OVCAR-3 ovarian) was > 100 µM and the TGI (SK-OV-3 ovarian) was > 100 µM. The TGI (M14 melanoma) was 86.3 µM, the TGI (UACC-62 melanoma) was > 100 µM and the TGI (DMS 273 small cell lung) was > 100 µM. The TGI (COLO 205 colon) was 82.8 µM, the TGI (SNB-78 CNS) was > 100 µM and the TGI (UACC-257 melanoma) was > 100 µM. The TGI (HCT-15 colon) was > 100 µM, the TGI (K-562 leukemia) was > 100 µM and the TGI (HOP-92 NSCLC) was 96.6 µM. For the same compound, the TGI (CAKI-1 renal) was > 100 µM, the TGI (TK-10 renal) was > 100 µM and the TGI (SW-620 colon) was > 100 µM. For the same compound, the TGI (LXFL 529 NSCLC) was > 100 µM, the TGI (U251 CNS) was > 100 µM and the TGI (SF-295 CNS) was > 100 µM. For the same compound, the TGI (CCRF-CEM leukemia) was > 100 µM, the TGI (M19-MEL melanoma) was > 100 µM and the TGI (786-0 renal) was > 100 µM. The TGI (OVCAR-8 ovarian) was > 100 µM, the TGI (EKVX NSCLC) was > 100 µM and the TGI (HOP-18 NSCLC) was > 100 µM. For the same compound, the TGI (OVCAR-5 ovarian) was > 100 µM, the TGI (IGROV1 ovarian) was > 100 µM and the TGI (SF-539 CNS) was > 100 µM. For the same compound, the TGI (LOX IMVI melanoma) was > 100 µM, the TGI (HT29 colon) was > 100 µM and the TGI (KM20L2 colon) was > 100 µM. For the same compound, the TGI (SK-MEL-5 melanoma) was > 100 µM, the TGI (UO-31 renal) was > 100 µM and the TGI (A498 renal) was > 100 µM. For the same compound, the TGI (DLD-1 colon) was > 100 µM, the TGI (SK-MEL-2 melanoma) was > 100 µM and the TGI (NCI-H226 lung) was > 100 µM.

With `Cc1ccccc1NC(=O)c1cc2cc(N=Nc3ccccc3C(=O)O)ccc2oc1=O` the TGI (HL-60(TB) leukemia) was 55.6 µM, the TGI (A549 NSCLC) was > 100 µM and the TGI (HOP-62 NSCLC) was 43.3 µM. It also gave a TGI (MALME-3M melanoma) of 25 µM, a TGI (SNB-75 CNS) of 35.6 µM and a TGI (NCI-H23 lung) of 12.2 µM. The TGI (SK-MEL-28 melanoma) was 41.2 µM, the TGI (SN12C renal) was 53.3 µM and the TGI (NCI-H460 lung) was 60 µM. It also gave a TGI (NCI-H522 lung) of 29.5 µM, a TGI (HCT-116 colon) of 57.9 µM and a TGI (RXF 393 renal) of 33.9 µM. The TGI (KM12 colon) was 27.8 µM, the TGI (ACHN renal) was > 100 µM and the TGI (OVCAR-3 ovarian) was > 100 µM. The TGI (SK-OV-3 ovarian) was 68.7 µM, the TGI (DMS 114 small cell lung) was 41.2 µM and the TGI (M14 melanoma) was 37.7 µM. For the same compound, the TGI (MOLT-4 leukemia) was 83.5 µM, the TGI (UACC-62 melanoma) was 17.9 µM and the TGI (DMS 273 small cell lung) was 42.5 µM. The TGI (COLO 205 colon) was 27.8 µM, the TGI (RPMI-8226 leukemia) was 60.2 µM and the TGI (UACC-257 melanoma) was 24.1 µM. The TGI (HCT-15 colon) was 36.7 µM, the TGI (K-562 leukemia) was 79.5 µM and the TGI (TK-10 renal) was > 100 µM. For the same compound, the TGI (SW-620 colon) was > 100 µM, the TGI (U251 CNS) was 51.5 µM and the TGI (SF-295 CNS) was 39.2 µM. For the same compound, the TGI (CCRF-CEM leukemia) was 80.4 µM, the TGI (M19-MEL melanoma) was 27.3 µM and the TGI (786-0 renal) was 69.6 µM. The TGI (OVCAR-8 ovarian) was > 100 µM, the TGI (EKVX NSCLC) was > 100 µM and the TGI (HOP-18 NSCLC) was 35.1 µM. For the same compound, the TGI (IGROV1 ovarian) was 65.2 µM, the TGI (SF-539 CNS) was 37.5 µM and the TGI (LOX IMVI melanoma) was 41.6 µM. For the same compound, the TGI (HT29 colon) was 38.3 µM, the TGI (KM20L2 colon) was 32.1 µM and the TGI (SK-MEL-5 melanoma) was 30.7 µM. For the same compound, the TGI (UO-31 renal) was 50.6 µM, the TGI (DLD-1 colon) was 54.3 µM and the TGI (SK-MEL-2 melanoma) was 47.7 µM. For the same compound, the TGI (NCI-H226 lung) was 44 µM.

`CC12CCC(=O)N1c1cnccc1N2` (stereo unspecified) was tested, and the TGI (HL-60(TB) leukemia) was > 100 µM, the TGI (A549 NSCLC) was > 100 µM and the TGI (HOP-62 NSCLC) was > 100 µM. The TGI (MALME-3M melanoma) was > 100 µM, the TGI (SNB-75 CNS) was > 100 µM and the TGI (NCI-H23 lung) was > 100 µM. The TGI (SK-MEL-28 melanoma) was > 100 µM, the TGI (SR leukemia) was > 100 µM and the TGI (HCC-2998 colon) was > 100 µM. For the same compound, the TGI (OVCAR-4 ovarian) was > 100 µM, the TGI (SN12C renal) was > 100 µM and the TGI (NCI-H460 lung) was > 100 µM. The TGI (NCI-H522 lung) was > 100 µM, the TGI (SF-268 CNS) was > 100 µM and the TGI (HCT-116 colon) was > 100 µM. The TGI (SNB-19 CNS) was > 100 µM, the TGI (KM12 colon) was > 100 µM and the TGI (ACHN renal) was > 100 µM. For the same compound, the TGI (OVCAR-3 ovarian) was > 100 µM, the TGI (SK-OV-3 ovarian) was > 100 µM and the TGI (DMS 114 small cell lung) was > 100 µM. The TGI (M14 melanoma) was > 100 µM, the TGI (MOLT-4 leukemia) was > 100 µM and the TGI (UACC-62 melanoma) was > 100 µM. For the same compound, the TGI (DMS 273 small cell lung) was > 100 µM, the TGI (COLO 205 colon) was > 100 µM and the TGI (SNB-78 CNS) was > 100 µM. The TGI (RPMI-8226 leukemia) was > 100 µM, the TGI (UACC-257 melanoma) was > 100 µM and the TGI (HCT-15 colon) was > 100 µM. The TGI (K-562 leukemia) was > 100 µM, the TGI (HOP-92 NSCLC) was > 100 µM and the TGI (CAKI-1 renal) was > 100 µM. For the same compound, the TGI (TK-10 renal) was > 100 µM, the TGI (SW-620 colon) was > 100 µM and the TGI (LXFL 529 NSCLC) was > 100 µM. The TGI (U251 CNS) was > 100 µM, the TGI (SF-295 CNS) was > 100 µM and the TGI (CCRF-CEM leukemia) was > 100 µM. The TGI (OVCAR-8 ovarian) was > 100 µM, the TGI (EKVX NSCLC) was > 100 µM and the TGI (OVCAR-5 ovarian) was > 100 µM. The TGI (IGROV1 ovarian) was > 100 µM, the TGI (SF-539 CNS) was > 100 µM and the TGI (HT29 colon) was > 100 µM. For the same compound, the TGI (KM20L2 colon) was > 100 µM, the TGI (SK-MEL-5 melanoma) was > 100 µM and the TGI (UO-31 renal) was > 100 µM. For the same compound, the TGI (A498 renal) was > 100 µM, the TGI (DLD-1 colon) was > 100 µM and the TGI (SK-MEL-2 melanoma) was > 100 µM.
